From patent publication US12691084B2, “Pharmaceutical composition for preventing or treating bone diseases” (INDUSTRY FOUNDATION OF CHONNAM NATIONAL UNIVERSITY, priority 2019, dated 2026)
Entries after “also recorded” stand apart in the source; their conditions may differ.

Legend:
[1] = test system: NFATc1; experiment: Intranuclear migration of transcription factors, western blotting of nuclear and cytoplasmic proteins; type: cell-based, mouse; conditions: osteoclasts differentiated by RANKL for 3 days
Source text: In order to further confirm the inhibitory effect of the PMSA compound on osteoclast differentiation, the intranuclear migration of transcription factors NFATc1 and NF-kB and the expression degree of osteoclast-specific genes regulated by the transcription factors were investigated.
First, in order to confirm the intranuclear migration of transcription factors, osteoclasts differentiated by RANKL for 3 days were separated into nuclear protein and cytoplasmic protein using a NE-PER kit (ThermoFisher scientific 78833). Then, the expression of each of NFATc1 and NF-kB in each organelle was investigated through western blotting.

[2] = PAMPA, parallel artificial membrane permeability assay; type: in vitro ADME; conditions: for Papp: PAMPA, criterion >40, read-out: PAMPA (>40) Pe; for permeability resistance: conclusion from ADME evaluation
Experimental: In order to analyze the drug metabolism of PMSA compound, ADME evaluation was requested to the Daegu-Gyeongbuk Advanced Medical industry Promotion Foundation (DGMIF). Metabolic stability of drugs using liver microsomes (microsomal stability), drug metabolism inhibitory ability by five CYP450 enzymes, plasma metabolism (plasma stability), plasma protein binding, and intestinal permeability of drugs (PAMPA, parallel artificial membrane permeability assay) were analyzed. […] Further, it was confirmed that the permeability resistance was excellent (see Table 3 below). On the other hand, for one of PMSA derivatives, that is, 2-(N-(3,5-dimethylphenyl)methylsulfinamido)-N-(2 (phenylthio)phenyl)propanamide (#25-D5), intestinal permeability of the drug (PAMPA) was not measured.

[3] = test system: monocytes isolated from mouse bone marrow; experiment: MTT assay for cytotoxicity evaluation (cell viability); type: cell-based; conditions: 3-10 μM; 4 days
Experimental: 1×10^4 monocytes isolated from mouse bone marrow per well were put into a 96-well plate, and in order to assess cell viability, the cells were cultured for 4 days while being treated with PSTP-3,5-Me at different concentrations (3-10 μM). A cell viability assay reagent (DoGen, EZ-3000) was used for treatment with 1/10 of the volume of the medium, and the cells were cultured at 37° C. for 30 minutes and confirmed at […]. […] In other words, it is understood that no cytotoxicity appeared.

[4] = test system: mouse bone marrow cells; experiment: F-actin staining, actin-ring formation; type: cell-based; conditions: 6 uM, 4 to 5 days
Experimental: In order to determine the activity of differentiated osteoclasts, an ability to differentiate the cells into multinuclear cells was firstly confirmed through F-actin staining. Specifically, 5×10^4 mouse hone marrow cells per well were put into a 24-well plate in which glass coated with L-Lysine was placed (Corning, 354085). Simultaneously, the cells were treated with PSTP-3,5-Me 6 uM and cultured for 4 to 5 days. The differentiated cells were fixed with 4% formaldehyde for 10 minutes and washed with PBS. For the antigen-antibody reaction, a reaction was conducted in 0.1% Triton-PBS for 20 minutes, followed by reacting the same in 1% BSA for 1 hour. Thereafter, the F-actin antibody (Thermo Fisher Scientific, A12379) was reacted for 1 hour and than washed. Cell nuclei were stained through 4′,6-diamidino-2-phenylindole (DAPI, Dilactate, Thermo Fisher Scientific, D3571) staining, and then photographed under a microscope. As a result, it was confirmed by comparing shies of F-actin that PSTP-3,5-Me inhibited differentiation into multinuclear cells.

[5] = test system: ovariectomized mouse; experiment: Ovariectomized (OVX) mouse osteoporosis model, tibia microcomputer tomography; type: in vivo
Experimental: In order to confirm in vivo efficacy of the PMSA compound, an ovariectomized animal model (OVX, ovariectomized mouse) with osteoporosis due to estrogen deficiency after ovariectomy in 8-week-old female mouse was prepared. #25 (PMSA-3-Ac, 25 mg/kg) or #25-D12 (PMSA-2-OMe-5-Cl, 20 mg/kg) were injected intraperitoneally once every two days to the ovariectomized mouse model. After 4 weeks, the tibia of the mouse was analyzed for bone density by microcomputer tomography.

[6] = 20 mg/kg intraperitoneally once every two days, 4 weeks, tibia, compared to control (OVX)

| SMILES | NFATc1 expression in the nucleus [1] | Papp [2] | permeability resistance [2] | cell viability [3] | differentiation into multinuclear cells (F-actin) [4] | actin-ring formation ([4]; compared to control) | bone density and bone volume ([5]; 20 mg/kg intraperitoneally once every two days, 4 weeks, compared to control (OVX)) | bone volume (BV) increase [5, 6] | cortical volume (Ct.V) increase [5, 6] | total bone volume (TV) increase [5, 6] | trabecular bone mineral density (Th. BMD) increase [5, 6] | trabecular volume (Th.V) increase [5, 6] | bone loss ([5]; OVX mouse model) |
| --- | --- | --- | --- | --- | --- | --- | --- | --- | --- | --- | --- | --- | --- |
| CC(=O)c1cccc(N(CC(=O)Nc2ccccc2Sc2ccccc2)S(C)(=O)=O)c1 [#25, 2-(N-(3-acetylphenyl)methylsulfonamido)-N-(2-(phenylthio)phenyl)acetamide] | less expressed in the nucleus | 59.4 ± 1.6 ×10⁻⁶ cm/s | excellent |  |  |  |  |  |  |  |  |  |  |
| Cc1cc(C)cc(N([C@@H](C)C(=O)Nc2ccccc2Sc2ccccc2)S(C)(=O)=O)c1 [#25-D5, N^2-(3,5-dimethylphenyl)-N^2-(methylsulfonyl)-N-[2-(phenylthio)phenyl]alanineamide] |  |  |  | did not affect cell viability | inhibited | small-sized actin-ring structure |  |  |  |  |  |  |  |
| COc1ccc(Cl)cc1N(CC(=O)Nc1ccccc1Sc1ccccc1)S(C)(=O)=O [#25-D12, 2-(N-(5-chloro-2-methoxyphenyl)methylsulfonamido)-N-(2-(phenylthio)phenyl)acetamide] | less expressed in the nucleus | 49 ± 2 ×10⁻⁶ cm/s | excellent |  |  |  | higher | 6.9% | 5.4% | 5.4% | 42.3% | 2.7 times | preventing bone loss in the trabecular bone portion; also recorded: effectively reduced bone loss |
